Results as given in ChEMBL document CHEMBL1144945, “Development of progesterone receptor antagonists from 1,2-dihydrochromeno[3,4-f]quinoline agonist pharmacophore” (Bioorg Med Chem Lett, 2003).
The source made the active and inactive calls. The calls are words filed in the database; no cut-off is given here.

What was measured:
[1] = molecular target: T1, Glucocorticoid receptor (Homo sapiens) (UniProt P04150); test: Antagonist efficacy for glucocorticoid receptor; not active; assay type: functional
T1 sequence (whole entry): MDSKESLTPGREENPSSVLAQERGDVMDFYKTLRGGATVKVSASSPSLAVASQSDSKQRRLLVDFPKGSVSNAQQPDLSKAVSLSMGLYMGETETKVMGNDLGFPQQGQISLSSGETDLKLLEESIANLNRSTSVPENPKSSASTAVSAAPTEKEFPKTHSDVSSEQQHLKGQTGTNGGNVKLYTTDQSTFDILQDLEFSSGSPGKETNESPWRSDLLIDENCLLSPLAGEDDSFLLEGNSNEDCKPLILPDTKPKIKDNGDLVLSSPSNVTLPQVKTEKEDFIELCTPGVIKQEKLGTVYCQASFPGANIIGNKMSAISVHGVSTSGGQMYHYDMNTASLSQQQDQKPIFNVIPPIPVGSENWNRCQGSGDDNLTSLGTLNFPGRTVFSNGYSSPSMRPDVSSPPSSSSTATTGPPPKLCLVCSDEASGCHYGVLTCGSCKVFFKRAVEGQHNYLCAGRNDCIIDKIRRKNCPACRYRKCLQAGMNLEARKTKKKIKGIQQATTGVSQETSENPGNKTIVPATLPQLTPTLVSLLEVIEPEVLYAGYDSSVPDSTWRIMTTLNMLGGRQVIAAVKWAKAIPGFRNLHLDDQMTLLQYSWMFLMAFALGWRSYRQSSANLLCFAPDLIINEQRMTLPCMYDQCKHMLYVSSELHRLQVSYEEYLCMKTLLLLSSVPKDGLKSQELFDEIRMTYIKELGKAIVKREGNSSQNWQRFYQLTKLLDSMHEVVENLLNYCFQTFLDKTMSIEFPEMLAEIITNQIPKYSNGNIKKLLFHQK

[2] = molecular target: T1, Glucocorticoid receptor (Homo sapiens); test: Antagonist efficacy for glucocorticoid (hGR) receptor; assay type: functional
Progesterone receptor = molecular target: T2, Progesterone receptor (Homo sapiens, UniProt P06401); test: Effective concentration for human progesterone in T47D human breast cancer cell; assay type: cell-based, Cancer cell lines
T2 sequence (P06401 whole entry): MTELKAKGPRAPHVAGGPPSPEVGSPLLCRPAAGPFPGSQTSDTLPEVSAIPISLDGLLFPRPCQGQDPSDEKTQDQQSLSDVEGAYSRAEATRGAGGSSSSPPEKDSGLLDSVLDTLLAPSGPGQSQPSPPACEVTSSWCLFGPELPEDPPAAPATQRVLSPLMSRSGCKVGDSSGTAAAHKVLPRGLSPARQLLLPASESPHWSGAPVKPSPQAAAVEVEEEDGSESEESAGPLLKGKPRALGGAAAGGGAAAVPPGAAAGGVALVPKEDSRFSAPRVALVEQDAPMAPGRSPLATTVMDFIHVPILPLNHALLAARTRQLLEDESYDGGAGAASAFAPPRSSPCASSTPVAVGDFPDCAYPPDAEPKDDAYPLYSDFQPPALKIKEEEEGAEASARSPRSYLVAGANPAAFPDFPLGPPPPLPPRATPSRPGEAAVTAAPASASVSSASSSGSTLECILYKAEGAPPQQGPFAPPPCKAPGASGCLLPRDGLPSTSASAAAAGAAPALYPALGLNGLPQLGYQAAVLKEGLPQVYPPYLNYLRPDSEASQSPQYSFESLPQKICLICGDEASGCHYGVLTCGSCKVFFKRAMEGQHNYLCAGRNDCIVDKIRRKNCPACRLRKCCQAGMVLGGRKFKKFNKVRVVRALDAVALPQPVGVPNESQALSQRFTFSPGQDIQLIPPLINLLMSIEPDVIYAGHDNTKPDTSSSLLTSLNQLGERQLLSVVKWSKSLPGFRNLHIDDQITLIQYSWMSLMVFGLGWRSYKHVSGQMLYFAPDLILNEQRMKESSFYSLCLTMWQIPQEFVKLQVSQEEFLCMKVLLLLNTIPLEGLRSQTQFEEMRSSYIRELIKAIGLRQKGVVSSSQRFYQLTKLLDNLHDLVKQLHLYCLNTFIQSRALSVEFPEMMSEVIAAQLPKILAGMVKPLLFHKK

Row | SMILES | Efficacy [1] | Efficacy [2] [%] | EC50 (Progesterone receptor) [nM]
1 | CC1CC(C)(C)Nc2ccc3c(c21)COc1c(F)cc(F)cc1-3 (stereo not drawn) | inactive |  | 
2 | CC1=CC(C)(C)Nc2ccc3c(c21)COc1c(F)cc(F)cc1-3 |  | 57 | 244
